Target: CDK9/CycT1 (Homo sapiens, UniProt P50750)
Assay: ADP-Glo kinase assay on CDK enzymatic activity, CDK9/CycT1
Assay type: biochemical
Settings: 10 concentrations from 10 μM, 4-fold, 60 min room temperature
Source text: Test samples: the compounds of the present invention, having structures shown above.
ADP-Glo Kinase Assay (ADP-Glo kinase kit), DMSO (dimethyl sulfoxide), CDK9/CycT1 (cyclin-dependent kinase 9/cyclin T1), CDK tide (cyclin-dependent kinase substrate peptide fragments), CDK1/CycE1 (cyclin-dependent kinase 1/cyclin E1), CDK2/CycA2 (cyclin-dependent kinase 2/cyclin A2), CDK3/CycE1 (cyclin-dependent kinase 3/cyclin E1), CDK4/CycD3 (cyclin-dependent kinase 4/cyclin D3), CDK5/p25NCK (cyclin-dependent kinase 5/p25), and AZD 4573.
A 384-well white plate, a 96-well plate, a microplate oscillator, a centrifuge, and a microplate reader.
The compounds were dissolved in DMSO and diluted 4-fold in the 96-well plate to obtain stock solutions with 10 concentration gradients, and added into a 384-well plate system to obtain a series of 10 concentration gradients of compound solutions with final concentrations of 10 μM starting and 4-fold gradient decreasing. 1 μM AZD4573 was used as compound positive control (PC) and 0.5% DMSO as solvent vehicle control (VC), ten duplicated wells each for PC and VC.
1 μL of compound solution and 2 μL of 2× kinase solution were transferred to each well, and the plate was centrifuged at 1000 g for 30 s and left at room temperature for 10 min. A mixture of 2× substrate and ATP was prepared in 1× kinase buffer. The reaction was started after adding 2 μL of substrate and ATP into the plate. The plate was centrifuged at 1000 g for 30 s. The assay plate was closed and left at room temperature for 60 min. The reaction system was added with 4 μL of ADP Glo reagent, centrifuged at 1000 rpm for 1 min, and incubated at room temperature for 40 min. The reaction system was added with 8 μL of kinase assay reagent, centrifuged at 1000 rpm for 1 min and incubated at room temperature for 40 min. The […] was read on Biotek.
The inhibition rate was calculated according to the following formula: […]
Lumcmpd: compound fluorescence reading; Lumpositive: average value of the fluorescence reading of positive compound control; Lumvehicle: average value of the fluorescence reading of solvent vehicle control.
IC50 values were fitted using GraphPad 7.0 based on inhibition rates of compounds at different concentrations.

Chain of CDK9/CycT1 (P50750 whole entry): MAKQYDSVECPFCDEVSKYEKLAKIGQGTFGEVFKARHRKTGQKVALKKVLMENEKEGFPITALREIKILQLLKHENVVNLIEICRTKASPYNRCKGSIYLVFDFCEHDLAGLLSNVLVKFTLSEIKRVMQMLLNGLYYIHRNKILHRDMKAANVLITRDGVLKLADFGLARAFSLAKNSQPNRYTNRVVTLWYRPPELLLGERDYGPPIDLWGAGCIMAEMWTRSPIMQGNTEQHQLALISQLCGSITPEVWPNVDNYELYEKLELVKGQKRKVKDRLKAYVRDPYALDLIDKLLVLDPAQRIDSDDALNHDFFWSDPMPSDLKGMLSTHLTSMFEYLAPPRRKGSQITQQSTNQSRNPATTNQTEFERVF
Chain of CDK9/CycT1 (O60563 whole entry partner): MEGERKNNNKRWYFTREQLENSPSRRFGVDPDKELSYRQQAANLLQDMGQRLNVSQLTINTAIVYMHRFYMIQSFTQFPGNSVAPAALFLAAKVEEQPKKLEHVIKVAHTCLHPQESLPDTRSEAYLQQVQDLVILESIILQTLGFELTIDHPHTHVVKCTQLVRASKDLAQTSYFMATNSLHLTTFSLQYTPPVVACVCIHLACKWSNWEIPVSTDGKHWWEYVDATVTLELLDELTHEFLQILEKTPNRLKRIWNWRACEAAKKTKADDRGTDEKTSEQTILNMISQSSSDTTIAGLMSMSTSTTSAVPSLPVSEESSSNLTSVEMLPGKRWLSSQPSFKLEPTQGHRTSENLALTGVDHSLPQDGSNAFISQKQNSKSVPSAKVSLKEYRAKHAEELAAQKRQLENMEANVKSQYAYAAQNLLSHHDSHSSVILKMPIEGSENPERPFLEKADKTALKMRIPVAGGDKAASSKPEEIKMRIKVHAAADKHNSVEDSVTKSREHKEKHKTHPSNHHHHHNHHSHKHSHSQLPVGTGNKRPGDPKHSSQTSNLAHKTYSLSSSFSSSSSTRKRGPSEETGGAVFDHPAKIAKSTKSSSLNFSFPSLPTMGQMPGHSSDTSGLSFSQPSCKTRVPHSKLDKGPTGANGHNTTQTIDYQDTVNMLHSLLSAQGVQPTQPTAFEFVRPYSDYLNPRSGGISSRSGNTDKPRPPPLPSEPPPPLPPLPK

IC50 | SMILES
2 nM | CO[C@H]1C[C@H](Nc2ncc3cc(C#N)nc(NC(C)C)c3n2)C1 [Compound C12, 8-(isopropylamino)-2-(((1r,3r)-3-methoxycyclobutyl)amino)pyrido[3,4-d]pyrimidine-6-carbonitrile]
2 nM | CC(C)Nc1nc(C#N)cc2cnc(N[C@H]3C[C@@H](CN)C3)nc12 [Compound C17, 2-(((1s,3s)-3-(aminomethyl)cyclobutyl)amino)-8-(isopropylamino)pyrido[3,4-d]pyrimidine-6-carbonitrile]
4 nM | CC(C)Nc1nc(C#N)cc2cnc(N[C@H]3C[C@H](N4CCOCC4)C3)nc12 [Compound C21, 8-(isopropylamino)-2-(((1r,3r)-3-morpholinocyclobutyl)amino)pyrido[3,4-d]pyrimidine-6-carbonitrile]
4 nM | CC(=O)N1CCN([C@H]2C[C@H](Nc3ncc4cc(C#N)nc(NC(C)C)c4n3)C2)CC1 [Compound C32, 2-(((1r,3r)-3-(4-acetylpiperazin-1-yl)cyclobutyl)amino)-8-(isopropylamino)pyrido[3,4-d]pyrimidine-6-carbonitrile]
1 nM | CC(C)(C)Nc1nc(C#N)cc2cnc(N[C@H]3C[C@](C)(N)C3)nc12 [Compound C34, 2-(((1r,3r)-3-amino-3-methylcyclobutyl)amino)-8-(tert-butylamino)pyrido[3,4-d]pyrimidine-6-carbonitrile]
2 nM | CC(C)Nc1nc(C#N)cc2cnc(N[C@H]3C[C@@]4(CCN4)C3)nc12 [Compound C37, 2-(((4r,6s)-1-azaspiro[3.3]heptan-6-yl)amino)-8-(isopropylamino)pyrido[3,4-d]pyrimidine-6-carbonitrile]
1 nM | CCNc1nc(C#N)cc2cnc(N[C@H]3C[C@](C)(N)C3)nc12 [Compound C38, 2-(((1r,3r)-3-amino-3-methylcyclobutyl)amino)-8-(ethylamino)pyrido[3,4-d]pyrimidine-6-carbonitrile]
1 nM | N#Cc1cc2cnc(N[C@H]3C[C@H](N)C3)nc2c(N[C@@H]2CCCOC2)n1 [Compound C39, 2-(((1r,3R)-3-aminocyclobutyl)amino)-8-(((R)-tetrahydro-2H-pyran-3-yl)amino)pyrido[3,4-d]pyrimidine-6-carbonitrile]
5 nM | CN(C)[C@H]1CC[C@H](Nc2ncc3cc(C#N)nc(N[C@@H]4CCOC4)c3n2)CC1 [Compound C40, 2-(((1r,4R)-4-(dimethylamino)cyclohexyl)amino)-8-(((R)-tetrahydrofuran-3-yl)amino)pyrido[3,4-d]pyrimidine-6-carbonitrile]
2 nM | COC[C@H](C)Nc1nc(C#N)cc2cnc(N[C@H]3C[C@H](N)C3)nc12 [Compound C42, 2-(((1r,3S)-3-aminocyclobutyl)amino)-8-(((S)-1-methoxypropan-2-yl)amino)pyrido[3,4-d]pyrimidine-6-carbonitrile]
1 nM | CCNc1nc(C#N)cc2cnc(N[C@H]3C[C@H](NC)C3)nc12 [Compound C43, 8-(ethylamino)-2-(((1r,3r)-3-(methylamino)cyclobutyl)amino)pyrido[3,4-d]pyrimidine-6-carbonitrile]
20 nM | CC(C)Nc1nc(C#N)cc2cnc(N[C@@H]3CCCNC3)nc12 [Compound C44, (R)-8-(isopropylamino)-2-(piperidin-3-ylamino)pyrido[3,4-d]pyrimidine-6-carbonitrile]
24 nM | CCOc1nc(C#N)cc2cnc(N[C@H]3C[C@H](N)C3)nc12 [Compound C47, 2-(((1r,3r)-3-aminocyclobutyl)amino)-8-ethoxypyrido[3,4-d]pyrimidine-6-carbonitrile]
20 nM | CC(C)Oc1nc(C#N)cc2cnc(N[C@H]3CCCNC3)nc12 [Compound C49, (S)-8-isopropoxy-2-(piperidin-3-ylamino)pyrido[3,4-d]pyrimidine-6-carbonitrile]

The remaining lines, values behind:

SMILES | IC50
CC(C)Nc1nc(C(F)F)c(C#N)c2cnc(N[C@H]3CCCNC3)nc12 [Compound 111, (S)-6-(difluoromethyl)-8-(isopropylamino)-2-(piperidin-3-ylamino)pyrido[3,4-d]pyrimidine-5-carbonitrile] | 69 nM
CC(C)Nc1nc(C#N)cc2cnc(NC3CCS(=O)(=O)CC3)nc12 [Compound 120, 2-((1,1-dioxidotetrahydro-2H-thiopyran-4-yl)amino)-8-(isopropylamino)pyrido[3,4-d]pyrimidine-6-carbonitrile] | 32 nM
CC(C)Nc1nc(C#N)cc2cnc(N[C@@H]3CCNC3=O)nc12 [Compound 124, (R)-8-(isopropylamino)-2-((2-oxopyrrolidin-3-yl)amino)pyrido[3,4-d]pyrimidine-6-carbonitrile] | 26 nM
N#Cc1cc2cnc(N[C@H]3CCCNC3)cc2c(O[C@H]2CCOC2)n1 [Compound 155, 7-(((S)-piperidin-3-yl)amino)-1-(((S)-tetrahydrofuran-3-yl)oxy)-2,6-naphthyridine-3-carbonitrile] | 33 nM
CC(C)Nc1nc(C#N)cc2cnc(N[C@H]3CCCC[C@@H]3O)cc12 [Compound 156, 7-(((1S,2S)-2-hydroxycyclohexyl)amino)-1-(isopropylamino)-2,6-naphthyridine-3-carbonitrile] | 14 nM
CC(C)Nc1nc(C#N)cc2cnc(N[C@@H]3CCCC[C@H]3O)cc12 [Compound 159, 7-(((1R,2R)-2-hydroxycyclohexyl)amino)-1-(isopropylamino)-2,6-naphthyridine-3-carbonitrile] | 22 nM
CC(C)Nc1nc(C#N)cc2cnc(N[C@H]3CCCC[C@H]3O)cc12 [Compound 160, 7-(((1S,2R)-2-hydroxycyclohexyl)amino)-1-(isopropylamino)-2,6-naphthyridine-3-carbonitrile] | 26 nM
CC(C)Nc1nc(C#N)cc2cnc(N[C@@H]3CCCC[C@@H]3O)cc12 [Compound 161, 7-(((1R,2S)-2-hydroxycyclohexyl)amino)-1-(isopropylamino)-2,6-naphthyridine-3-carbonitrile] | 14 nM
CC(C)Nc1nc(C#N)cc2cnc(N[C@@H]3CCC[C@H]3N)cc12 [Compound 165, 7-(((1R,2R)-2-aminocyclopentyl)amino)-1-(isopropylamino)-2,6-naphthyridine-3-carbonitrile] | 47 nM
N#Cc1cc2cnc(N[C@H]3C[C@@H](O)C3)cc2c(N[C@@H]2CCOC2)n1 [Compound 176, 7-(((1s,3S)-3-hydroxycyclobutyl)amino)-1-(((R)-tetrahydrofuran-3-yl)amino)-2,6-naphthyridine-3-carbonitrile] | 3 nM
N#Cc1cc2cnc(N[C@H]3CCCNC3)cc2c(NC2COC2)n1 [Compound 182, (S)-1-(oxetan-3-ylamino)-7-(piperidin-3-ylamino)-2,6-naphthyridine-3-carbonitrile] | 15 nM
CCC(CC)c1nc(C#N)cc2cnc(N[C@H]3CCCNC3)cc12 [Compound 188, (S)-1-(pentan-3-yl)-7-(piperidin-3-ylamino)-2,6-naphthyridine-3-carbonitrile] | 10 nM
CSc1nc(C#N)cc2cnc(N[C@H]3CCCNC3)cc12 [Compound 192, (S)-1-(methylthio)-7-(piperidin-3-ylamino)-2,6-naphthyridine-3-carbonitrile] | 11 nM
CCOc1nc(C#N)cc2cnc(N[C@H]3CCCNC3)cc12 [Compound 198, (S)-1-ethoxy-7-(piperidin-3-ylamino)-2,6-naphthyridine-3-carbonitrile] | 12 nM
N#Cc1cc2cnc(N[C@H]3CCCNC3)cc2c(OC2CCC2)n1 [Compound 199, (S)-1-cyclobutoxy-7-(piperidin-3-ylamino)-2,6-naphthyridine-3-carbonitrile] | 4 nM
CC(C)(C)Nc1nc(C(F)F)cc2cnc(N[C@H]3C[C@@H](N)C3)cc12 [Compound 203, N^7-((1s,3s)-3-aminocyclobutyl)-N^1-(tert-butyl)-3-(difluoromethyl)-2,6-naphthyridine-1,7-diamine] | 1 nM
CC(C)Nc1nc(C#N)cc2cnc(NC3CCN(CC(=O)N(C)C)CC3)nc12 [Compound C3, 2-(4-((6-cyano-8-(isopropylamino)pyrido[3,4-d]pyrimidin-2-yl)amino)piperidin-1-yl)-N,N-dimethylacetamide] | 27 nM
CC(C)Nc1nc(C#N)cc2cnc(N[C@H]3C[C@](C)(O)C3)nc12 [Compound C11, 2-(((1r,3r)-3-hydroxy-3-methylcyclobutyl)amino)-8-(isopropylamino)pyrido[3,4-d]pyrimidine-6-carbonitrile] | 1 nM

Source: US20250163043A1 (TRANSTHERA SCIENCES (NANJING), INC., priority 2021, published 2025)
